In the supplement of paper PMC10627819:

What was measured:
S. aureus DSM 20231 = experiment: Bliss interaction score (quartile over a dose matrix) (fitness difference); higher = more antagonism (negative = synergy)
Method in brief: (§1)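 Fitness was derived from optical density at entry into stationary phase, divided by the robust mean of the no-drug wells on the same plate. That reading was taken as OD595, and the ratio was capped at 1. Single-drug fitness was inferred from the combination data. The Bliss score, observed fitness minus the expected product of single-drug fitness, was summarised as quartiles over technical, biological and donor/recipient replicates.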

S. pneumoniae D39V [1] = experiment: as above
Method in brief: as §1

B. subtilis 168 [2] = experiment: as above
Method in brief: as §1

S. aureus Newman = experiment: as above
Method in brief: as §1

B. subtilis 168 [3] = experiment: fitness (endpoint OD595 vs no drug) (fraction); higher = more growth
Method in brief: (§2)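 Volumes were 30 µl per well, or 55 µl for S. pneumoniae, in 384-well plates inoculated at OD595 0.01. Media were TSB, LB Lennox or CY at 37 °C, and OD595 was read every 30 min for 14 h with first-reading background subtraction. Fitness is the ratio of optical density at stationary-phase entry to the robust mean of no-drug controls. That ratio is capped at 1.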

S. pneumoniae D39V [4] = experiment: as above
Method in brief: as §2
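For Bliss interaction score (quartile over a dose matrix) in this document: first quartile when negative (synergy) and third quartile when positive (antagonism).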

C[C@H]1COc2c(N3CCN(C)CC3)c(F)cc3c(=O)c(C(=O)O)cn1c23 [Levofloxacin] + COc1cc(Cc2cnc(N)nc2N)cc(OC)c1OC [Trimethoprim]
Conditions | Bliss interaction score
B. subtilis 168 [2] | 0.0693
S. aureus DSM 20231 | -0.0537
S. aureus Newman | -0.109
S. pneumoniae D39V [1] | -0.112

B. subtilis 168 [3], one replicate
Conditions | fitness
first compound 0.001 µg/mL, partner 0.125 µg/mL | 0.528
first compound 0.001 µg/mL, partner 0.25 µg/mL | 0.41
first compound 0.001 µg/mL, partner 0.5 µg/mL | 0.456
first compound 0.002 µg/mL, partner 0.1 µg/mL | 0.907
first compound 0.002 µg/mL, partner 0.2 µg/mL | 0.804
first compound 0.002 µg/mL, partner 0.4 µg/mL | 0.572
first compound 0.0039 µg/mL, partner 0.1 µg/mL | 0.884
first compound 0.0039 µg/mL, partner 0.2 µg/mL | 0.745
first compound 0.0039 µg/mL, partner 0.4 µg/mL | 0.548
first compound 0.0078 µg/mL, partner 0.1 µg/mL | 0.872
first compound 0.0078 µg/mL, partner 0.125 µg/mL | 0.736
first compound 0.0078 µg/mL, partner 0.2 µg/mL | 0.696
first compound 0.0078 µg/mL, partner 0.4 µg/mL | 0.521
first compound 0.0312 µg/mL, partner 1 µg/mL | 0.0312
first compound 0.0312 µg/mL, partner 2 µg/mL | 0.0414
first compound 0.0625 µg/mL, partner 1 µg/mL | 0.0468
first compound 0.0625 µg/mL, partner 2 µg/mL | 0.0379
first compound 0.125 µg/mL, partner 1 µg/mL | 0.0309
first compound 0.125 µg/mL, partner 2 µg/mL | 0.0616

fitness, B. subtilis 168 [3]
Conditions | first compound 0.002 µg/mL | first compound 0.0039 µg/mL | first compound 0.0078 µg/mL | first compound 0.0312 µg/mL | first compound 0.0625 µg/mL | first compound 0.125 µg/mL
partner 0.125 µg/mL | 0.554 | 0.564 | – | – | – | –
partner 0.25 µg/mL | – | – | 0.689 | – | – | –
partner 0.5 µg/mL | 0.423 | 0.414 | 0.494 | 0.0339 | 0.0357 | 0.0365

CCCCCCCCCC(=O)N[C@@H](Cc1c[nH]c2ccccc12)C(=O)N[C@H](CC(N)=O)C(=O)N[C@@H](CC(=O)O)C(=O)N[C@@H]1C(=O)NCC(=O)N[C@@H](CCCN)C(=O)N[C@@H](CC(=O)O)C(=O)N[C@H](C)C(=O)N[C@@H](CC(=O)O)C(=O)NCC(=O)N[C@H](CO)C(=O)N[C@@H]([C@H](C)CC(=O)O)C(=O)N[C@@H](CC(=O)c2ccccc2N)C(=O)O[C@@H]1C [Daptomycin] + C[C@H]1c2cccc(O)c2C(=O)C2=C(O)[C@]3(O)C(=O)C(C(N)=O)=C(O)[C@@H](N(C)C)[C@@H]3[C@@H](O)[C@@H]21 [Doxycycline]
Conditions | Bliss interaction score
B. subtilis 168 [2] | 0.0559
S. aureus DSM 20231 | 0.0825
S. aureus Newman | 0.0504
S. pneumoniae D39V [1] | -0.249

fitness, one replicate
Conditions | first compound 1 µg/mL | first compound 2 µg/mL | first compound 4 µg/mL
B. subtilis 168 [3], partner 0.02 µg/mL | 0.624 | – | –
B. subtilis 168 [3], partner 0.04 µg/mL | 0.641 | – | –
B. subtilis 168 [3], partner 0.08 µg/mL | 0.188 | – | –
S. pneumoniae D39V [4], partner 0.003875 µg/mL | 0.928 | 0.934 | 0.981
S. pneumoniae D39V [4], partner 0.00775 µg/mL | 0.866 | 0.878 | 0.927

Conditions | fitness
B. subtilis 168 [3], first compound 0.125 µg/mL, partner 0.02 µg/mL | 0.857
B. subtilis 168 [3], first compound 0.125 µg/mL, partner 0.04 µg/mL | 0.794
B. subtilis 168 [3], first compound 0.125 µg/mL, partner 0.08 µg/mL | 0.605
B. subtilis 168 [3], first compound 0.25 µg/mL, partner 0.02 µg/mL | 0.871
B. subtilis 168 [3], first compound 0.25 µg/mL, partner 0.04 µg/mL | 0.757
B. subtilis 168 [3], first compound 0.25 µg/mL, partner 0.08 µg/mL | 0.595
B. subtilis 168 [3], first compound 0.5 µg/mL, partner 0.02 µg/mL | 0.83
B. subtilis 168 [3], first compound 0.5 µg/mL, partner 0.04 µg/mL | 0.771
S. pneumoniae D39V [4], first compound 1 µg/mL, partner 0.0155 µg/mL | 0.733
S. pneumoniae D39V [4], first compound 2 µg/mL, partner 0.0155 µg/mL | 0.738
S. pneumoniae D39V [4], first compound 4 µg/mL, partner 0.0155 µg/mL | 0.795

CN(C)C(=O)C(CCN1CCC(O)(c2ccc(Cl)cc2)CC1)(c1ccccc1)c1ccccc1 [Loperamide] + C[n+]1ccc(-c2cc[n+](C)cc2)cc1 [Paraquat]
Conditions | Bliss interaction score
B. subtilis 168 [2] | -0.103
S. aureus DSM 20231 | 0.177
S. aureus Newman | 0.0662
S. pneumoniae D39V [1] | 0.0549

fitness
Conditions | partner 1.25 µg/mL | partner 1.5 µg/mL | partner 2.5 µg/mL | partner 3 µg/mL | partner 5 µg/mL | partner 6 µg/mL
B. subtilis 168 [3], first compound 25 µg/mL | 0.798 | – | 0.684 | – | 0.537 | –
B. subtilis 168 [3], first compound 50 µg/mL | 0.0367 | – | 0.0251 | – | 0.0432 | –
B. subtilis 168 [3], first compound 100 µg/mL | 0.0324 | – | 0.0267 | – | 0.0238 | –
S. pneumoniae D39V [4], first compound 17.14 µg/mL | – | 0.994 | – | 0.984 | – | 0.922
S. pneumoniae D39V [4], first compound 34.28 µg/mL | – | 0.972 | – | 0.973 | – | 0.883

fitness, S. pneumoniae D39V [4], one replicate
Conditions | first compound 20 µg/mL | first compound 40 µg/mL | first compound 68.57 µg/mL | first compound 80 µg/mL
partner 1.5 µg/mL | ≥ 1 | ≥ 1 | 0.934 | ≥ 1
partner 3 µg/mL | ≥ 1 | ≥ 1 | 0.931 | ≥ 1
partner 6 µg/mL | ≥ 1 | ≥ 1 | 0.853 | ≥ 1

CCCCCCCCCC(=O)N[C@@H](Cc1c[nH]c2ccccc12)C(=O)N[C@H](CC(N)=O)C(=O)N[C@@H](CC(=O)O)C(=O)N[C@@H]1C(=O)NCC(=O)N[C@@H](CCCN)C(=O)N[C@@H](CC(=O)O)C(=O)N[C@H](C)C(=O)N[C@@H](CC(=O)O)C(=O)NCC(=O)N[C@H](CO)C(=O)N[C@@H]([C@H](C)CC(=O)O)C(=O)N[C@@H](CC(=O)c2ccccc2N)C(=O)O[C@@H]1C [Daptomycin] + CN(C)C(=O)C(CCN1CCC(O)(c2ccc(Cl)cc2)CC1)(c1ccccc1)c1ccccc1 [Loperamide]
Conditions | Bliss interaction score
B. subtilis 168 [2] | 0.136
S. aureus DSM 20231 | 0.133
S. aureus Newman | 0.0375
S. pneumoniae D39V [1] | 0.075

fitness
Conditions | partner 17.14 µg/mL | partner 20 µg/mL | partner 25 µg/mL | partner 34.28 µg/mL | partner 40 µg/mL | partner 80 µg/mL | partner 100 µg/mL
B. subtilis 168 [3], first compound 0.125 µg/mL | – | – | 0.862 | – | – | – | 0.0281
B. subtilis 168 [3], first compound 0.25 µg/mL | – | – | 0.802 | – | – | – | 0.0213
B. subtilis 168 [3], first compound 0.5 µg/mL | – | – | 0.669 | – | – | – | 0.0107
S. pneumoniae D39V [4], first compound 1 µg/mL | 0.888 | ≥ 1 | – | 0.877 | ≥ 1 | 0.225 | –
S. pneumoniae D39V [4], first compound 2 µg/mL | 0.951 | ≥ 1 | – | 0.919 | ≥ 1 | 0.153 | –
S. pneumoniae D39V [4], first compound 4 µg/mL | 0.917 | ≥ 1 | – | 0.918 | ≥ 1 | 0.196 | –

fitness, one replicate
Conditions | first compound 1 µg/mL | first compound 2 µg/mL | first compound 4 µg/mL
B. subtilis 168 [3], partner 25 µg/mL | 0.191 | – | –
B. subtilis 168 [3], partner 50 µg/mL | 0.0409 | – | –
B. subtilis 168 [3], partner 100 µg/mL | 0.0167 | – | –
S. pneumoniae D39V [4], partner 68.57 µg/mL | 0.856 | 0.858 | 0.887
